# Patent US8461199B2, “Transition metal complexes of a bis[thio-hydrazide amide] compound” (Synta Pharmaceuticals Corp., priority 2008, dated 2013)
# Columns and labels:
# [1] = tested on: stage IV metastatic melanoma; settings: in combination with paclitaxel, relative to patients treated with paclitaxel alone; cited from earlier work
# M14 melanoma cells = experiment: Cytotoxicity in confluent M14 cells, cell viability by CCK8 assay; type: cell-based; settings: Homo sapiens, 48 h incubation, 0.25% DMSO, n=4
# Description: M14 melanoma cells were seeded at 50,000 cells per well of 96-well plate in 100 μl of Dulbecco's minimum essential medium (DMEM) supplemented with 10% fetal bovine serum. Cells were cultured at 37° C. under 5% CO2-95% air. After 16 hours of incubation, the test compound was added to the cell culture. The compound was first diluted in 100% dimethyl sulfoxide (DMSO) at 400-fold of the final concentrations actually used in the assay. The DMSO solution was next diluted 20 fold with the culture medium, and then finally added to the assay wells at another 20-fold dilution. Assay medium included the test compound with concentrations as indicated with 0.25% DMSO. Cell viability was measured with a CCK8 assay (as described in the Technical Manual for Cell Counting Kit-8, Product #CK04-11, CK04-13 and CK04-20, Dojindo Molecular Technologies, Inc. MD, Tantular, I. S., et al. Tropical Medicine and International Health, 8(6), 569-574, 2003) in the last 15 minutes after a 48 h incubation with the test compound. Each bar of the figure expresses average percent inhibition against vehicle (0.25% DMSO) control (n=4).
smiles,measurement,setting,value
"CN(NC(=O)CC(=O)NN(C)C(=S)c1ccccc1)C(=S)c1ccccc1 [compound A, N-malonyl-bis(N′-methyl-N′-thiobenzoylhydrazide)]",time to progression,[1],increase the time to progression
same,IC50,M14 melanoma cells,> 12.5 µM
